US11039618B2, “Metam salts and polysulfide soil treatment” (Tessenderlo Kerley, Inc, priority 2016, dated 2021)

What was measured:
Verticillium = assay: Jar test 2016: Verticillium microsclerotia colonies in treated soil, dry soil plating on NP-10; format: cell-based, Verticillium dahliae; conditions: 2016 test; microsclerotia colonies per gram of soil post-treatment; soil 20% water content; 4 replicates
Description: These investigations were performed under laboratory conditions in an initial jar test. We also investigated the pathogen control efficacy of LSS treatments, at 30 gal/acre (90 pounds/acre or 101 Kg/ha of calcium polysulfide) and at 90 gal/acre (276 pounds/acre or 310 Kg/ha of calcium polysulfide), and combined Metam/LSS treatments using Sectagon® brand metam at 20 gal/acre Metam (84 pounds/acre or 94 Kg/ha of metam sodium) with 40 gal/acre LSS (122 pounds/acre or 138 Kg/ha of calcium polysulfide); and at 30 gal/acre Metam (126 pounds/acre or […] of metam sodium) with 20 gal/acre LSS (60 pounds/acre or 67 kg/ha of calcium polysulfide). […] This may be due to lower water saturation in the 2016 tests compared to the saturation in 2015 tests, which was near 100%.
Each treatment listed in Table 1 was replicated 4 times. Verticillium levels in soil were assessed by dry incubation on semi selective media (NP-10) method. Soil collected from a Romaine lettuce field in Salinas, Calif. was used for the investigation. […]
Experimental Setup: Seven treatments were installed in 4 replicates each. […] The equivalent of gal/acre was calculated on the assumption that on acre of soil has an average weight of 3,625,895 lbs. […] Afterwards, soil was split between the two laboratories and were assessed according to the method described.
Verticillium levels in soil were assessed by dry incubation on semi selective media (NP-10). […]
The quantity of Verticillium in soil was assessed by dry soil plating on NP-10 semi-selective medium. […] After that, remaining soil was gently washed off the plates and the number of Verticillium microsclerotia colonies were counted on each plate under a microscope. The number of microsclerotia colonies is used as a standard method to quantify Verticillium in soil and was extrapolated for 1 g soil.
Results were analyzed in a one-way ANOVA (P=0.05) and a Fisher LSD Post-Hoc test. […]
Verticillium assessments were performed parallel in two separate laboratories. […] The quantity of Verticillium in soil was assessed by dry soil plating on NP-10 semi-selective medium. […]

[1] = system: artificially infested V. dahliae soil; assay: Greenhouse eggplant bioassay (plant height) in treated, artificially infested V. dahliae soil; format: in vivo; conditions: preliminary; for eggplant height Jul. 27, 2017: soil treated Jun. 27, 2017, eggplant transplanted July 13, rates gal/acre on 12 inch soil depth, letters after value = statistical grouping, untreated 118; for eggplant height Aug. 4, 2017 / eggplant height Aug. 10, 2017 / eggplant height Aug. 17, 2017: soil treated Jun. 27, 2017, letters = statistical grouping; for eggplant height Aug. 4, 2017: untreated 124; for eggplant height Aug. 10, 2017: untreated 134
Description: In these tests, greenhouse and microplot trials were done to further define the LSS efficacy as stand-alone treatment as well as in combination with Sectagon®. A large number of soil samples were treated using the rates below, expressed as gallons equivalent per acre of (LSS), a 3.07 pounds Calcium Polysulfide per gallon Liquid Lime Sulfur Solution, and Sectagon®, a 4.25 pound per gallon sodium methyldithiocarbamate (metam) solution. Each treatment was performed on six samples to provide statistically valid data. As always, though the treatment is defined in terms of gallons per acre of two products, the testing is with a mixture.
To minimize sample variability that was apparent in certain previous tests, these tests were a greenhouse study, using artificially infested V. dahliae soil. A soil derived from a Romaine lettuce field in Salinas, Calif. (collected September 2015) was confirmed (January 2017) to be highly infested with V. dahliae. Romaine lettuce were grown in the V. dahliae infested soil until microsclerotia built up in the leaves. Infested leaves were harvested, dried, crumbled, and mixed with autoclaved sand. Samples of the mixture were tested for V. dahliae. The mixture was used for the greenhouse study and for the production of pathogen bags for the microplot study.
Artificially infested V. dahliae soil were treated according to the above list. The greenhouse/eggplant study utilize a sterile sand+10% potting mix soil. The inoculated soil was pre-irrigated to ca. 70% field capacity for 14 days, and was then soil placed in various containers, each of which was then treated with appropriate LSS/Metam mixture in a certain volume of water. The soil was thoroughly mixed/agitated, and left sealed for 24 hours to simulate a water seal or tarp. The container was then unsealed 24 hours after application and allowed to sit for 14 days and then mixed and apportioned into 4″ pots for growing eggplant as the bioassay.
To simulate a situation closer to field conditions, a field based microplot study was also established for a few of the above tests, using eggplant. The greenhouse/eggplant study utilized a sterile sand+10% potting mix soil; the inoculated soil was pre-irrigated to ca. 70% field capacity for 14 days; soil was placed in a bucket, treated with appropriate LSS/Metam mixture in correct volume of water, thoroughly mixed/agitated, and left sealed for 24 hours to simulate a water seal or tarp. The bucket was unsealed at 24 hours after application and allowed to sit for 14 days and then mixed and apportioned into 4″ pots for growing eggplant as the bioassay. Seven days after treatment, one soil sample per replicate was taken. V. dahliae control efficacy was assessed according to the methods below, but only on selected treatments due to time pressures. At 14 days after treatment, eggplants were grown in the remaining soil to assess treatment effects on vigor and growth. […] Microplots were located at the USDA Research Field at Spence Road, Salinas, Calif. Treatments were selected based on the results of the previous greenhouse study. Trial site was pre-irrigated for 7 days before placing the Verticillium, V. dahliae, sample bags in the various treatments. Sprinkler irrigation was used to establish 60-80% soil moisture. Four V. dahliae samples per replicate were artificially introduced at 4 and 8 inches depth. Treatments were applied with micro emitter and drip across the microplot. The treatment using a 2 hour drip irrigation period was anticipated to provide penetration to 12 inch depth. After treatment, microplots remained untarped. After 5-7 days V. dahliae samples were recovered.
All LSS and Sectagon® treatments were made, mixing the treatment well with the soil and covering to prevent outgassing on Jun. 27, 2017. On June 28 the lids were removed lids. […]

SMILES | Verticillium quantity (ms/g) Lab A (Verticillium) [ms/g] | Verticillium quantity (ms/g) Lab B (Verticillium) [ms/g] | eggplant height Jul. 27, 2017 [1] | eggplant height Aug. 4, 2017 [1] | eggplant height Aug. 10, 2017 [1] | eggplant height Aug. 17, 2017 ([1]; untreated 138) | eggplant height Aug. 17, 2017 ([1]; untreated 138, listed as comparative example 10) [mm]
CNC(=S)[S-].[Na+] [Comp. Example 3, sodium methyldithiocarbamate] | 0.5 ± 0.5 | 12 ± 3 |  |  |  |  | 
CNC(=S)[S-].[Na+] [Sample 8, sodium methyldithiocarbamate] |  |  | 140abcde mm | 145 cdefg mm | 159 bcdef mm | 163bcde mm | 
CNC(=S)[S-].[Na+] [Sample 9, sodium methyldithiocarbamate] |  |  | 138bcdef mm | 150cdefg mm | 155cdefg mm | 160bcdef mm | 
CNC(=S)[S-].[Na+] [Sample 10, sodium methyldithiocarbamate] |  |  | 150abc mm | 160bcde mm | 169abcde mm | 171acbd mm | 171
